Test results as given in US20190351031A1, “METHODS OF SELECTING SUBJECTS FOR COMBINATION CANCER THERAPY WITH A POLYMER-CONJUGATED SOLUBLE PH20” (HALOZYME, INC., priority 2018, published 2019).

Columns and labels:
[1] = tested on: B16 melanoma model; settings: oral 600 mg/kg/d (Yoshihara et al. 2005); cited from earlier work
[2] = route: IV or PO; cited from earlier work
[3] = target: T1, cytidine deaminase (Homo sapiens, UniProt P32320); settings: cited from earlier work
T1 construct: for the enzyme purified from human liver; host or cells: human liver
T1 sequence (P32320 whole entry): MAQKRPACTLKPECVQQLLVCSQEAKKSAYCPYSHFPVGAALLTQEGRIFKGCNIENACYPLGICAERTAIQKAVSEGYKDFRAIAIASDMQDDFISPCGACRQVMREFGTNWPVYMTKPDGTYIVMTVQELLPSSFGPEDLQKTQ

[4] = tested on: BxPC3 pancreatic cancer cell line; assay: Tumor growth inhibition in BxPC-3 human pancreatic tumor xenograft model; format: in vivo, mouse; settings: gemcitabine 60, 120, 180 and 240 mg/kg once a week, day 0, 7, 14, 21
Experimental: Tumor cells from the BxPC3 pancreatic cancer cell line (American Tissue Culture Collection (ATCC) CRL-1687) were grown to approximately 80% confluency, trypsinized, collected, washed once in HBSS (Hank's balance salt solution, Mediatech Inc.). Prior to inoculation, cells were washed twice with sterile HBSS, counted using a Nexcelom Cellometer (Nexcelom Bioscience; Lawrence, Mass.) automated counting device which determines cell concentration and viability via Trypan Blue exclusion and diluted with HBSS to a concentration of 1×10^8 cells/mL on ice before inoculation into animals. Male nude mice (Athymic NCr nu/nu mice, Taconic Laboratories, Inc.) approximately 6 weeks old, were inoculated intramuscularly (IM) with 0.05 mL of cell suspension, peritibially, in the left hind leg (adjacent to the tibia periosteum). The tumors in the animals were assessed twice a week and allowed to grow to a mean tumor volume of approximately 350-400 mm^3. Actual tumor volumes were determined using VisualSonics Vevo 770 high-resolution ultrasound (VisulaSonics Inc.; Toronto, Ontario, Canada). […]
The tumor volumes of all mice were measured by capturing images using the VisualSonics ultrasound system 2 times per week. Tumor volume was calculated using a 3D-mode imaging software program (VisualSonics® Vevo 770®, v 3.0.0). The percent tumor growth inhibition (% TGI) was calculated by the following equation: […]

[5] = tested on: BxPC3 pancreatic cancer cell line; assay: Median survival time (time to survival endpoint) in BxPC-3 xenograft model; format: in vivo, mouse; settings: three 4-week dosing cycles; PEGPH20 4.5, nab-paclitaxel 10 mg/kg, gemcitabine 180 mg/kg
Experimental: Following the first four week dosing cycle as set forth in part A, the dosing cycle was repeated two times and time to survival endpoint was followed over time. Briefly, in each dosing cycle, animals were treated with vehicle or PEGPH20 ([…]) with or without nab-paclitaxel (10 mg/kg) intravenously twice a week for four weeks. In each cycle, groups receiving gemcitabine were administered gemcitabine (180 mg/kg) 24 hours after PEGPH20 and/or nab-paclitaxel every 7 days for three weeks of the dose cycle. Time to survival endpoint, a measure of animal survival, was defined as (a) time to tumor volume of greater than 2000 mm^3, (b) time to a greater than 20% bodyweight loss, or (c) time to animal duress or death.

[6] = tested on: carbohydrate antigen 19-9 (CA19-9); assay: Serum CA19-9 tumor biomarker ELISA in BxPC-3 xenograft model; format: in vivo, mouse; settings: day 20 of first dosing cycle
Experimental: C. Measurement of Tumor Biomarkers Biomarkers carbohydrate antigen 19-9 (CA19-9) and carcinoembryonic antigen (CEA) associated with pancreatic cancer were tested to measure therapeutic response. Animals were treated as described in part A. Serum was collected from satellite animals ([…]) from each group on day 0, 6, 13 and 20 of the first dosing cycle. Human CA19-9 was measured using a CA 19-9 ELISA kit (Catalog No. CA199T, Calbiotech, Spring Valley, Calif.) and CEA tumor antigen was measured using a CEA ELISA kit (Catalog No. CE062T, Calbiotech, Spring Valley, Calif.).

[7] = tested on: pancreatic cancer; settings: gemcitabine monotherapy (Burris et al. 1997); cited from earlier work
[8] = in vivo; cited from earlier work

In the case of `Cc1cc(=O)oc2cc(O)ccc12` [4-MU, 7-hydroxy-4-methylcoumarin], the reduction of metastases [1] is listed as 64%.
For `C[C@]12CCC(=O)C=C1CC[C@@H]1[C@@H]2[C@@H](O)C[C@@]2(C)[C@H]1CC[C@]2(O)C(=O)CO` [Hydrocortisone], the “Equivalent Potency” value [2] is given as 20 mg.
For `C[C@H]1C[C@@H]2[C@H]([C@@H](O)C[C@@]3(C)[C@H]2CC[C@]3(O)C(=O)COC(=O)CCC(=O)O)[C@@]2(C)C=CC(=O)C=C12` [Methylprednisolone sodium succinate], the “Equivalent Potency” value [2] is given as 4 mg.
For `C[C@]12C=CC(=O)C=C1CC[C@@H]1[C@@H]2[C@@H](O)C[C@@]2(C)[C@H]1CC[C@]2(O)C(=O)CO` [Prednisolone], the “Equivalent Potency” value [2] is given as 5 mg.
In the case of `Nc1ccn([C@H]2C[C@H](O)[C@@H](CO)O2)c(=O)n1` [deoxycytidine], the “rate of deamination relative to decitabine at equal concentrations” value [3] is given as “about 6 fold”.
For `Nc1ccn([C@@H]2O[C@H](CO)[C@@H](O)C2(F)F)c(=O)n1` [gemcitabine, 2′,2′-difluorodeoxycytidine], the “tumor growth compared to vehicle only” value [4] was “inhibited tumor growth at all doses tested”, the “Median Survival Time” value [5] was 38 days and the “level of CA19-9 marker in serum” value [6] was “approximately similar to vehicle only control”. The median survival [7] was “over 5 months” and the half-life in plasma [8] was “approximately 10 minutes”.
